Data published in PubChem BioAssay AID220 (DTP/NCI, 2004).
“And” between values parts separate entries of the source, which are not always exact repeats. Equal entries are not always repeated. Results filed as inconclusive are left out.

Tested on: CD8F1 mice, subcutaneous mammary adenocarcinoma, T/C%
Assay: NCI In Vivo Anticancer Drug Screen. Data for tumor model Mammary Adenocarcinoma CD8F1 (subcutaneous) in CD8F1
Settings: higher = larger tumour
Procedure, shortened: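 Ratio of treated to vehicle-control outcome, based on either survival or tumor size, in mice bearing transplantable tumors given the test compound.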

[1] = endpoint: median tumor weight change, dose: 250.0 mg/kg/injection, schedule: Q01DX001 (ip), vehicle: saline with Tween-80
[2] = endpoint: median tumor weight change, dose: 500.0 mg/kg/injection, schedule: Q01DX001 (ip), vehicle: saline with Tween-80
[3] = endpoint: median tumor weight (est.), dose: 25.0 mg/kg/injection, schedule: Q07DX005 (ip), vehicle: suspension in saline
[4] = endpoint: median tumor weight (est.), dose: 50.0 mg/kg/injection, schedule: Q07DX005 (ip), vehicle: suspension in saline
[5] = endpoint: median tumor weight (est.), dose: 100.0 mg/kg/injection, schedule: Q07DX005 (ip), vehicle: suspension in saline
[6] = endpoint: median tumor weight (est.), dose: 200.0 mg/kg/injection, schedule: Q07DX005 (ip), vehicle: suspension in saline
[7] = endpoint: median tumor weight (est.), dose: 400.0 mg/kg/injection, schedule: Q07DX005 (ip), vehicle: suspension in saline
[8] = endpoint: median tumor weight (est.), dose: 800.0 mg/kg/injection, schedule: Q07DX005 (ip), vehicle: suspension in saline

SMILES: COc1cc([C@@H]2c3cc4c(cc3[C@@H](OC3OC5COC(C)OC5C(O)C3O)[C@H]3COC(=O)[C@H]23)OCO4)cc(OC)c1O (some centres undefined)
- T/C (endpoint: median tumor weight (est.), dose: 2.0 mg/kg/injection, schedule: Q07DX005 (ip), vehicle: saline): 74 % of control
- T/C (endpoint: median tumor weight (est.), dose: 4.0 mg/kg/injection, schedule: Q07DX005 (ip), vehicle: saline): 110 % of control
- T/C (endpoint: median tumor weight (est.), dose: 8.0 mg/kg/injection, schedule: Q07DX005 (ip), vehicle: saline): 51 % of control
- T/C (endpoint: median tumor weight (est.), dose: 16.0 mg/kg/injection, schedule: Q07DX005 (ip), vehicle: clinical formulation): 38 % of control
- T/C (endpoint: median tumor weight (est.), dose: 16.0 mg/kg/injection, schedule: Q07DX005 (ip), vehicle: saline): 25 % of control and 48 % of control
- T/C (endpoint: median tumor weight (est.), dose: 32.0 mg/kg/injection, schedule: Q07DX005 (ip), vehicle: clinical formulation): 11 % of control
- T/C (endpoint: median tumor weight (est.), dose: 32.0 mg/kg/injection, schedule: Q07DX005 (ip), vehicle: saline): 8 % of control and 9 % of control

SMILES: CC1(C)OC2C(COC(=O)c3ccc([N+](=O)[O-])cc3)OC(NC(=O)N(CCCl)N=O)C2O1 (centres undefined)
- T/C (endpoint: median tumor weight (est.), dose: 1.25 mg/kg/injection, schedule: Q07DX005 (ip), vehicle: saline with Tween-80): 46 % of control
- T/C (endpoint: median tumor weight (est.), dose: 25.0 mg/kg/injection, schedule: Q07DX005 (ip), vehicle: saline with Tween-80): 51 % of control
- T/C (endpoint: median tumor weight (est.), dose: 50.0 mg/kg/injection, schedule: Q07DX005 (ip), vehicle: saline with Tween-80): 16 % of control
- T/C (endpoint: median tumor weight (est.), dose: 100.0 mg/kg/injection, schedule: Q07DX005 (ip), vehicle: saline with Tween-80): 36 % of control

SMILES: O=C(Nc1cccc2c(OC(=O)C(Cl)Cl)c(N=Nc3ccc(S(=O)(=O)Nc4nccs4)cc3)cc(N=Nc3ccc(S(=O)(=O)Nc4nccs4)cc3)c12)C(Cl)Cl (tested in a mixture with another compound)
- T/C [1]: 106 % of control
- T/C [2]: 124 % of control
- T/C (endpoint: median tumor weight change, dose: 1000.0 mg/kg/injection, schedule: Q01DX001 (ip), vehicle: saline with Tween-80): 37 % of control

SMILES: O=C1CN(CCN2CC(=O)N(CN3CCOCC3)C(=O)C2)CC(=O)N1CN1CCOCC1
- T/C (endpoint: median tumor weight change, dose: 15.62 mg/kg/injection, schedule: Q01DX001 (ip), vehicle: water): 53 % of control
- T/C (endpoint: median tumor weight change, dose: 31.25 mg/kg/injection, schedule: Q01DX001 (ip), vehicle: water): 64 % of control
- T/C (endpoint: median tumor weight change, dose: 62.5 mg/kg/injection, schedule: Q01DX001 (ip), vehicle: water): 96 % of control
- T/C (endpoint: median tumor weight change, dose: 125.0 mg/kg/injection, schedule: Q01DX001 (ip), vehicle: water): 40 % of control

SMILES: Nc1ccn(C2OC(CO)C(O)C2O)c(=O)n1 (centres undefined)
- T/C (endpoint: mean tumor weight, dose: 18.75 mg/kg/injection, schedule: Q01DX009 (ip), vehicle: saline): 84 % of control
- T/C (endpoint: mean tumor weight, dose: 25.0 mg/kg/injection, schedule: Q07DX007 (ip), vehicle: saline): 101 % of control
- T/C (endpoint: mean tumor weight, dose: 37.5 mg/kg/injection, schedule: Q01DX009 (ip), vehicle: saline): 39 % of control
- T/C (endpoint: mean tumor weight, dose: 75.0 mg/kg/injection, schedule: Q07DX005 (ip), vehicle: saline): 89 % of control
- T/C (endpoint: mean tumor weight, dose: 75.0 mg/kg/injection, schedule: Q07DX007 (ip), vehicle: saline): 98 % of control
- T/C (endpoint: mean tumor weight, dose: 150.0 mg/kg/injection, schedule: Q07DX005 (ip), vehicle: saline): 89 % of control
- T/C (endpoint: mean tumor weight, dose: 300.0 mg/kg/injection, schedule: Q07DX005 (ip), vehicle: saline): 100 % of control
- T/C (endpoint: median tumor weight (est.), dose: 75.0 mg/kg/injection, schedule: Q04DX005 (ip), vehicle: saline): 31 % of control and 55 % of control
- T/C (endpoint: median tumor weight (est.), dose: 130.0 mg/kg/injection, schedule: Q07DX005 (ip), vehicle: saline): 79 % of control
- T/C (endpoint: median tumor weight (est.), dose: 150.0 mg/kg/injection, schedule: Q04DX005 (ip), vehicle: saline): 50 % of control and 53 % of control
- T/C (endpoint: median tumor weight (est.), dose: 150.0 mg/kg/injection, schedule: Q07DX004 (ip), vehicle: saline): 22 % of control and 41 % of control
- T/C (endpoint: median tumor weight (est.), dose: 200.0 mg/kg/injection, schedule: Q07DX005 (ip), vehicle: saline): 73 % of control
- T/C (endpoint: median tumor weight (est.), dose: 300.0 mg/kg/injection, schedule: Q07DX005 (ip), vehicle: saline): 48 % of control
- T/C (endpoint: median tumor weight (est.), dose: 450.0 mg/kg/injection, schedule: Q07DX005 (ip), vehicle: saline): 75 % of control
- T/C (endpoint: median tumor weight (est.), dose: 600.0 mg/kg/injection, schedule: Q07DX005 (ip), vehicle: saline with Tween-80): 34 % of control and 45 % of control
- T/C (endpoint: median tumor weight (est.), dose: 790.0 mg/kg/injection, schedule: Q01DX001 (ip), vehicle: saline): 74 % of control
- T/C (endpoint: median tumor weight (est.), dose: 1180.0 mg/kg/injection, schedule: Q01DX001 (ip), vehicle: saline): 54 % of control
- T/C (endpoint: median tumor weight (est.), dose: 1200.0 mg/kg/injection, schedule: Q07DX005 (ip), vehicle: saline with Tween-80): 6 % of control and 18 % of control
- T/C (endpoint: median tumor weight (est.), dose: 1750.0 mg/kg/injection, schedule: Q01DX001 (ip), vehicle: saline): 54 % of control
- T/C (endpoint: median tumor weight (est.), dose: 2500.0 mg/kg/injection, schedule: Q01DX001 (ip), vehicle: saline): 62 % of control
- T/C (endpoint: median tumor weight change, dose: 790.0 mg/kg/injection, schedule: Q01DX001 (ip), vehicle: water): 48 % of control
- T/C (endpoint: median tumor weight change, dose: 1180.0 mg/kg/injection, schedule: Q01DX001 (ip), vehicle: water): 77 % of control
- T/C (endpoint: median tumor weight change, dose: 1750.0 mg/kg/injection, schedule: Q01DX001 (ip), vehicle: water): 57 % of control
- T/C (endpoint: median tumor weight change, dose: 2500.0 mg/kg/injection, schedule: Q01DX001 (ip), vehicle: water): 33 % of control

SMILES: CC(=O)OCC1OC(n2ccc(N)nc2=O)C(OC(C)=O)C1OC(C)=O (centres undefined)
- T/C [3]: 159 % of control
- T/C [4]: 70 % of control
- T/C [5]: 87 % of control
- T/C [6]: 88 % of control
- T/C [7]: 96 % of control
- T/C [8]: 6 % of control

SMILES: O=C(O)C1(C(=O)O)CCC1.[NH2-].[NH2-].[Pt+2]
- T/C (endpoint: median tumor weight change, dose: 6.25 mg/kg/injection, schedule: Q01DX001 (ip), vehicle: dextrose): 98 % of control
- T/C (endpoint: median tumor weight change, dose: 12.5 mg/kg/injection, schedule: Q01DX001 (ip), vehicle: dextrose): 80 % of control
- T/C (endpoint: median tumor weight change, dose: 25.0 mg/kg/injection, schedule: Q01DX001 (ip), vehicle: dextrose): 52 % of control

SMILES: N=[N+]=CC(=O)CCC(NC(=O)C(CCC(=O)C=[N+]=N)NC(=O)CCC(N)C(=O)O)C(=O)O (centres undefined)
- T/C (endpoint: median tumor weight (est.), dose: 3.12 mg/kg/injection, schedule: Q07DX004 (ip), vehicle: clinical formulation): 34 % of control
- T/C (endpoint: median tumor weight (est.), dose: 6.25 mg/kg/injection, schedule: Q07DX004 (ip), vehicle: clinical formulation): 123 % of control
- T/C (endpoint: median tumor weight (est.), dose: 12.5 mg/kg/injection, schedule: Q07DX004 (ip), vehicle: clinical formulation): 50 % of control
- T/C (endpoint: median tumor weight (est.), dose: 25.0 mg/kg/injection, schedule: Q07DX004 (ip), vehicle: clinical formulation): 22 % of control
- T/C (endpoint: median tumor weight (est.), dose: 50.0 mg/kg/injection, schedule: Q07DX004 (ip), vehicle: clinical formulation): 15 % of control
- T/C (endpoint: median tumor weight (est.), dose: 100.0 mg/kg/injection, schedule: Q07DX004 (ip), vehicle: clinical formulation): 12 % of control

SMILES: [Cl][Sn]([c]1ccccc1)[c]1ccccc1
- T/C (endpoint: median tumor weight change, dose: 1.56 mg/kg/injection, schedule: Q01DX001 (ip), vehicle: saline): 81 % of control
- T/C (endpoint: median tumor weight change, dose: 3.12 mg/kg/injection, schedule: Q01DX001 (ip), vehicle: saline): 63 % of control
- T/C (endpoint: median tumor weight change, dose: 6.25 mg/kg/injection, schedule: Q01DX001 (ip), vehicle: saline): 94 % of control
- T/C (endpoint: median tumor weight change, dose: 12.5 mg/kg/injection, schedule: Q01DX001 (ip), vehicle: saline): 81 % of control
- T/C (endpoint: median tumor weight change, dose: 25.0 mg/kg/injection, schedule: Q01DX001 (ip), vehicle: saline): 78 % of control
- T/C (endpoint: median tumor weight change, dose: 25.0 mg/kg/injection, schedule: Q01DX001 (ip), vehicle: water): 47 % of control

SMILES: NC1=NCN(C2OC(CO)C(O)C2O)C(=O)N1 (centres undefined)
- T/C (endpoint: median tumor weight (est.), dose: 25.0 mg/kg/injection, schedule: Q07DX004 (ip), vehicle: saline): 74 % of control
- T/C [3]: 59 % of control
- T/C (endpoint: median tumor weight (est.), dose: 50.0 mg/kg/injection, schedule: Q07DX004 (ip), vehicle: saline): 76 % of control
- T/C [4]: 45 % of control
- T/C (endpoint: median tumor weight (est.), dose: 100.0 mg/kg/injection, schedule: Q07DX004 (ip), vehicle: saline): 107 % of control
- T/C [5]: 56 % of control
- T/C (endpoint: median tumor weight (est.), dose: 200.0 mg/kg/injection, schedule: Q07DX004 (ip), vehicle: saline): 72 % of control
- T/C [6]: 61 % of control
- T/C (endpoint: median tumor weight (est.), dose: 400.0 mg/kg/injection, schedule: Q07DX004 (ip), vehicle: saline): 49 % of control
- T/C [7]: 34 % of control
- T/C (endpoint: median tumor weight (est.), dose: 800.0 mg/kg/injection, schedule: Q07DX004 (ip), vehicle: saline): 35 % of control
- T/C [8]: 13 % of control

SMILES: O=[N+]([O-])c1ccc(N2CCOCC2)c2c1no[n+]2[O-]
- T/C (endpoint: median tumor weight change, dose: 62.5 mg/kg/injection, schedule: Q01DX001 (ip), vehicle: saline with Tween-80): 100 % of control
- T/C (endpoint: median tumor weight change, dose: 125.0 mg/kg/injection, schedule: Q01DX001 (ip), vehicle: saline with Tween-80): 114 % of control
- T/C [1]: 43 % of control
- T/C [2]: 56 % of control
